How the values were obtained:
mouse = test: Behavioural despair test in the mouse (forced swim; duration of immobility and latency to immobility); format: in vivo, Male Rj: NMRI mice; settings: for DURATION OF IMMOBILITY % change / LATENCY % change: (a) compared with vehicle control
Protocol: Male Rj: NMRI mice (Elevage Janvier, 53940 Le Genest-Saint-Isle, France) having a body weight of between 22 and 29 g were used in the study. The mice were stabilised for 5 days prior to assessment with free access to food and water. […] […] The control vehicle was distilled water. The substances were evaluated in comparison with the control vehicle and were administered dissolved in distilled water.
The method, which detects antidepressant activity, follows that described by Porsolt et al (Arch. Int. Pharmacodyn., 1977, 229, 327-336). Mice forced to swim in a situation from which they cannot escape rapidly become immobile. Antidepressants decrease the duration of immobility.
Mice were individually placed in a cylinder (height=24 cm; diameter=13 cm) containing 10 cm water (22° C.) from which they cannot escape. The mice were placed in the water for 6 minutes and the duration of immobility during the last 4 minutes was measured. The latency to the first bout of immobility was also recorded.
10 mice were studied per group. The test was performed blind.
L-lysine-d-amphetamine (Vyvanse) (8, 16 and 32 mg/kg) was administered 90 minutes before the test, alone or in combination and compared with a vehicle control group.
Imipramine (128 mg/kg p.o.), administered under the same experimental conditions, was used as a reference substance.
Data were analysed by comparing treated groups with vehicle control using unpaired Student's t tests. In addition, groups treated with combinations of substances were compared with groups administered appropriate substances alone using unpaired Student's t tests.
The mouse behavioural despair test is based on the observation that mice, when forced to swim in a situation from which there is no escape, after an initial period of vigorous activity will eventually cease to move altogether making only those movements necessary to keep the head above the water. This behavioural immobility is thought to indicate a state of despair in which the mice have learned that escape is impossible and have resigned themselves to the experimental conditions. This immobility is reduced by anti-depression treatments.

mice = test: Light-dark box test of anxiety; format: in vivo; settings: 16 and 32 mg/kg, alone
Description: The light/dark test is based on the innate aversion of rodents to brightly/illuminated areas and on the spontaneous exploratory behaviour of rodents in response to mild stress, that is, novel environment and light. The test apparatus consists of a compartment box divided between a dark safe compartment and an illuminated aversive compartment.

[1] = Table 2, 128 mg/kg p.o. -60 min
[2] = Table 3, 128 mg/kg p.o. -90 min

With CN(C)CCCN1c2ccccc2CCc2ccccc21 [Imipramine] the “DURATION OF IMMOBILITY mean ± s.e.m.” value (mouse; [1]) was 70.4 ± 21.4 s, the “LATENCY mean ± s.e.m.” value (mouse; [1]) was 243.6 ± 32.7 s and the “DURATION OF IMMOBILITY % change” value (mouse; [1]) was −67%. For the same molecule, the LATENCY % change (mouse; [1]) was “+277%”, the “DURATION OF IMMOBILITY mean ± s.e.m.” value (mouse; [2]) was 100.6 ± 23.5 s and the “DURATION OF IMMOBILITY % change” value (mouse; [2]) was −48%.

For CN[C@H]1CC[C@@H](c2ccc(Cl)c(Cl)c2)c2ccccc21 [Sertraline, sertraline], the “DURATION OF IMMOBILITY mean ± s.e.m.” value (mouse; Table 3, 16 mg/kg p.o. -90 min) was 162.7 ± 27.5 s and the “DURATION OF IMMOBILITY % change” value (mouse; Table 3, 16 mg/kg p.o. -90 min) was −16%.

With C[C@@H](Cc1ccccc1)NC(=O)[C@@H](N)CCCCN [Vyvanse, N-[(1S)-1-methyl-2-phenylethyl]-L-lysinamide] the antidepressant-like activity (mouse; 16 and 32 mg/kg, alone) was “presence of antidepressant-like activity”, the “DURATION OF IMMOBILITY mean ± s.e.m.” value (mouse; Table 2, 16 mg/kg p.o. -60 min) was 173.6 ± 18.8 s and the “LATENCY mean ± s.e.m.” value (mouse; Table 2, 16 mg/kg p.o. -60 min) was 100.0 ± 21.3 s. The “DURATION OF IMMOBILITY % change” value (mouse; Table 2, 16 mg/kg p.o. -60 min) was −19%, the LATENCY % change (mouse; Table 2, 16 mg/kg p.o. -60 min) was “+55%” and the “DURATION OF IMMOBILITY mean ± s.e.m.” value (mouse; Table 2, 32 mg/kg p.o. -60 min) was 160.3 ± 22.6 s. The “LATENCY mean ± s.e.m.” value (mouse; Table 2, 32 mg/kg p.o. -60 min) was 104.3 ± 18.2 s, the “DURATION OF IMMOBILITY % change” value (mouse; Table 2, 32 mg/kg p.o. -60 min) was −25% and the LATENCY % change (mouse; Table 2, 32 mg/kg p.o. -60 min) was “+61%”. For the same molecule, the “DURATION OF IMMOBILITY mean ± s.e.m.” value (mouse; Table 3, 8 mg/kg p.o. -90 min) was 208.0 ± 7.3 s, the “DURATION OF IMMOBILITY % change” value (mouse; Table 3, 8 mg/kg p.o. -90 min) was “+7%” and the “DURATION OF IMMOBILITY mean ± s.e.m.” value (mouse; Table 3, 16 mg/kg p.o. -90 min) was 176.8 ± 14.8 s. For the same molecule, the “DURATION OF IMMOBILITY % change” value (mouse; Table 3, 16 mg/kg p.o. -90 min) was −9%, the “DURATION OF IMMOBILITY mean ± s.e.m.” value (mouse; Table 3, 32 mg/kg p.o. -90 min) was 123.1 ± 20.8 s and the “DURATION OF IMMOBILITY % change” value (mouse; Table 3, 32 mg/kg p.o. -90 min) was −37%. The anxiogenic activity (mice) was “absence of any anxiogenic activity”.
